# From patent publication US7709514B2, “Therapeutic molecules and methods-1” (Cortical Pty Ltd, priority 2002, dated 2010)
# pEC50: −log10 of the molar value. Where two headings read alike, the source gives them in different places.
# Assays:
# [1] = test system: antigen-specific T cell activation; test: antigen-specific (mBSA) activation of splenic T lymphocytes, 3H-thymidine incorporation; format: cell-based, mice; conditions: for pEC50: Mus musculus, T-cell, read-out: EC50, inhibition of T cell activation
# Description: C57BL6/J male mice, aged 7-10 weeks old, were immunised with 200 μg of methylated bovine serum albumin (mBSA) dissolved in 20 μL of saline, emulsified in 200 μL of Freund's complete adjuvant (FCA) by subcutaneous injection. Seven (7) days later mice received a booster immunisation with 100 μg mBSA in 10 μL saline plus 100 μL FCA by subcutaneous injection. After a further seven (7) days mice were killed and spleens collected aseptically into Hanks buffered saline solution (HBSS). A single cell suspension was prepared in Petri dishes by flushing DMEM using a 26G needle and 2 mL syringe. The resulting cell suspension was centrifuged for 5-7 minutes and supernatant discarded. Erythrocytes were lysed using a solution containing 0.579% NH4Cl, 0.000037% EDTA, and 0.1% NaHCO3 in a 37° C. water bath. Tubes were then filled with DMEM and centrifuged for 5-7 minutes. The cell-containing pellet was then resuspended in DMEM containing 5% fetal calf serum TICS) and 0.05% 2-mercapto-ethanol at a concentration of 1×10^6 cells/mL and plated at 1×10^5 cells/well in 96-well plastic tissue culture plates. Test substances (compound or vehicle) were added and incubated for 1 hour in a 37° C., 5% CO2 incubator. The specific stimulating antigen, mBSA, was then added at 10-50 μg/ml and plates incubated for 30 hours in a 37° C., 5% CO2 incubator. Tritiated ^3H-thymidine was then added at a concentration of 0.5 μCi/well for a further 18 hours. Cells were harvested on a Packard cell harvester, and the harvested material added to 750 μL/tube scintillation fluid. Scintillation counts were read on a Wallac beta-emission counter.
# The concentration at which T cell activation was suppressed by 50% compared to vehicle-only-treated cells (EC50) was calculated using Prism® software. […] Further compounds were also tested for their ability to inhibit antigen-specific T cell activation as a marker of the inhibition of the cytokine or biological activity of MIF using this assay. Table 5 lists the EC50 for each compound in this assay, performed with concentrations of mBSA of either 50 or 10 μg/ml.
# [2] = test system: cutaneous delayed-type hypersensitivity reactions; test: cutaneous delayed-type hypersensitivity (DTH) to mBSA; format: in vivo, mice; conditions: 15 mg/kg IP once per 24 hours; vs vehicle, p<0.05
# Description: As noted above, cutaneous delayed-type hypersensitivity reactions (DTH) are an in vivo test of T cell activation. […] A compound which inhibits the cytokine of biological activity of MIF may be expected to inhibit the development of DTH reactions in vivo. DTH reactions were induced in mice developing antigen-induced arthritis (see below). C57BL6/J male mice, aged 7-10 weeks old, were immunized on day 0 with 200 μg methylated BSA (mBSA) emulsified in 200 μl of Freund's complete adjuvant (FCA) injected subcutaneously into the flank skin. Mice were treated with compound 5, administered by intraperitoneal injection, once per 24 hours at a dose of 15 mg/kg body weight. After seven days, mice received 100 μg mBSA and 100 μl FCA by intradermal injection at the base of the tail. After a further 14 days, arthritis was induced by intra-articular injection of 30 μg mBSA in 10 μl of sterile saline into the left knee, the right knee being injected with sterile saline alone. DTH reactions were induced as follows: these mice were challenged 24 h before the end of the experiment by intradermal injection of 50 μg mBSA in 20 μl saline into one hind footpad. […] Footpad swelling was quantified 24 h later using a micrometer. DTH was recorded as the difference in skin swelling between mBSA and saline-injected footpads, and expressed as change in footpad thickness (Δmm).
# [3] = test system: lymph node and splenic T cells; test: ex vivo antigen-specific T cell activation after in vivo treatment; set-up: species or system mice
# Source text: In vivo administration of such a compound might be expected to exert effects on T cell responsiveness even after the T cells have been removed from exposure to the compound, that is, if T cells were studied ex vivo after in vivo treatment with the MIF antagonist compound. To measure ex vivo antigen-specific T cell activation, draining lymph nodes from arthritic limbs or spleens were removed from mice with murine antigen induced arthritis, induced as above with mBSA, at day 28 after first immunisation and a single cell suspension prepared in DMEM containing 5% FCS and 0.05% 2-mercaptoethanol. 1×10^5 cells/200 μl were cultured in triplicate in the presence or absence of mBSA (0.1, 1.0, 10 μg/ml) in 96-well plates for 48 hours (37° C., 5% CO2.) The T cell proliferation response was determined by measuring ^3H-thymidine incorporation during the final 18 hr. The cells were harvested and radioactivity incorporation into the DNA was measured with a Wallac 1409 liquid scintillation counter. The means of each triplicate culture were calculated. Each experiment comprised at least three individual animals and the results presented represent the mean±SEM of groups of animals in each experiment. The percentage inhibition of T cell proliferation was calculated using the result of the […] incorporation of cells from compound-treated animals subtracted from the ^3H-thymidine incorporation of cells from vehicle-treated animals.
# [4] = test system: MIF-induced proliferation of S112 human dermal fibroblasts; test: dermal fibroblast proliferation induced by recombinant MIF; format: cell-based; conditions: compound 0.013 μM
# Description: The activity of compound 5 was studied in a bioassay utilising MIF-induced proliferation of human dermal fibroblasts. S112 human dermal fibroblasts were propagated in RPMI/10% foetal calf serum (FCS). Prior to experimentation, cells were seeded at 10^5 cells/ml in RPMI/0.1% 13SA for 18 hours. At time point zero, culture medium was replaced with RPMI/10% FCS and treatments administered. Cells were treated with recombinant human macrophage migration inhibitory factor (MIF) 50 ng/ml and/or compound 5 at a 1-1000 molar ratio to the concentration of MIF. At a time point 30 hours later, cells were pulsed with 1 μCi/well of ^3H-thymidine. At a time point 48 hours after commencement of the experiment, cells were harvested using a semi-automated cell harvester. The radioactivity incorporated into DNA was determined by liquid scintillation counting, with results expressed as [^3H] thymidine incorporation.
# [5] = test system: murine endotoxic shock model; test: murine endotoxic shock model (LPS), cytokines by ELISA; format: in vivo, mice
smiles,measurement,setting,value
CCCCCOC(=O)c1ccc2[nH]c(=O)[nH]c2c1 [Compound 5],effect on antigen-specific T cell activation,"[1]; FIG. 8, mBSA 50 μg/mL, increasing concentrations",dose-dependent and statistically significant inhibitory effect
same,pEC50,[1]; mBSA 10 μg/ml,4.82
same,pEC50,[1]; mBSA 50 μg/ml,4.86
same,cutaneous DTH reactions (change in footpad thickness),[2],statistically significant reduction
same,ex vivo activation of lymph node T cells in response to mBSA,"[3]; FIG. 11a, vs vehicle",reduced proliferative responses
same,ex vivo splenic T cell proliferation in response to mBSA,"[3]; FIG. 11b, table 7, vs vehicle",inhibitory effect
same,% inhibition of ex vivo splenic T cell activation,[3]; [mBSA] 1 μg/mL,33%
same,% inhibition of ex vivo splenic T cell activation,[3]; [mBSA] 10 μg/mL,30%
same,effect on proliferation of S112 cells treated with recombinant human MIF,[4]; FIG. 12,marked and statistically significant inhibitory effect
same,inhibition at 0.013 µM,"[4]; Homo sapiens, Fibroblast, read-out: % inhibition of MIF-induced proliferation, rhMIF 50 ng/ml, S112, P < 0.001",98%
same,"Serum IL-6 at 6 h, LPS + cpd","[5]; IP injection 1 mg/kg at −1 h, LPS alone 215100",101000
same,"Serum IL-6 at 6 h, LPS + cpd","[5]; IP injection 5 mg/kg at −1 h, LPS alone 215100",108200
same,"Serum IL-6 at 6 h, LPS + cpd","[5]; IP injection 15 mg/kg at −24, −12, −1 h, LPS alone 261900",162800
